Legend:
Immature rats = test: In vivo uterotropic activity; settings: for Uterine Weight (mg) ± SD: immature rats; for estrogenic activity in vivo (in words): uterine stimulation compared with vehicle
[1] = target: T1, human estrogen receptor (hER-α) (Homo sapiens, UniProt P03372); test: Estrogen receptor binding, whole cell test procedure; settings: Ki of 5B estimated
T1 sequence (P03372 1-595): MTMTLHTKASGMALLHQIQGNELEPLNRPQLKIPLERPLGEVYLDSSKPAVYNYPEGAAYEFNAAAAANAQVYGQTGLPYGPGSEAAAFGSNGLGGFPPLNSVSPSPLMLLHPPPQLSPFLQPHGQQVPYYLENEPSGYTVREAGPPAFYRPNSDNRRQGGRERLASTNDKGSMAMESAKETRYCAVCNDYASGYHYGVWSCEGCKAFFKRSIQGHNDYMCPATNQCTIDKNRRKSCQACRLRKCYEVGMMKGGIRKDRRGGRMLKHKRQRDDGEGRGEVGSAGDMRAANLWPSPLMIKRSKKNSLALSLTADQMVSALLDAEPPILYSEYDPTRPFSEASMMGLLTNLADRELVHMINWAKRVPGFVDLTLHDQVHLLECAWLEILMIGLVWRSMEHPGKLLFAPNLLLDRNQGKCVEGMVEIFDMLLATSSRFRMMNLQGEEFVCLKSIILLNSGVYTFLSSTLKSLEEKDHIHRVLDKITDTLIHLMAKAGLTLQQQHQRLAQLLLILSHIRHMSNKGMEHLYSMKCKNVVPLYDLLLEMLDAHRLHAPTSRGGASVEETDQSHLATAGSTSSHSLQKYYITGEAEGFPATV

SMILES | Uterine Weight (mg) ± SD (Immature rats; 1 μg, three days S.C.) | Uterine Weight (mg) ± SD (Immature rats; 10 μg, three days S.C.) | Uterine Weight (mg) ± SD (Immature rats; 100 μg, three days S.C.) | Uterine Weight (mg) ± SD (Immature rats; 500 μg, three days S.C.) | estrogenic activity in vivo (in words) (Immature rats) | other results
C#C[C@]1(O)CC[C@H]2[C@@H]3CCc4cc(O)ccc4[C@H]3CC[C@@]21C [Ethinyl Estradiol, ethinyl estradiol, reference compound] |  |  |  |  |  | Uterine Weight (mg) ± SD (Immature rats; 0.5 μg, three days, positive control): 101.2 ± 2.8 mg
C[C@]12CC[C@H]3C(=CCC4=C3CC[C@@H](O)C4)[C@@H]1CCC2=O [5A, estra-5(10),7-dien-3α-ol-17-one] | 28.7 ± 2.7 mg | 33.3 ± 4.4 mg | 66.5 ± 4.7 mg | 78.9 ± 13.6 mg | significant estrogenic activity | estimated EC50 compared with 5B (Immature rats; in words, relative to approximately 30 μg/rat or 0.6 mg/kg for 5B): somewhat lower
C[C@]12CC[C@H]3C(=CCC4=C3CC[C@H](O)C4)[C@@H]1CCC2=O [5B, estra-5(10),7-dien-3β-ol-17-one] | 31.7 ± 6.6 mg | 43.5 ± 6.9 mg | 79.7 ± 5.8 mg | 82.6 ± 8.6 mg | significant estrogenic activity | Uterine Weight (mg) ± SD (Immature rats; 0.1 μg, three days S.C.): 34.1 ± 6.2 mg
C[C@]12CC[C@@H]3c4ccc(O)cc4CC[C@H]3[C@@H]1CCC2=O [estrone, reference compound] |  |  |  |  |  | EC50 estimated (Immature rats; in similar test procedures): 0.2 mg/kg
C[C@]12CCc3c(ccc4cc(O)ccc34)[C@@H]1CCC2=O [equilenen] |  |  |  |  |  | Ki [1]: 375 nM

— patent publication US6458778B1, “Estradienes” (Wyeth, priority 1997, dated 2002)
